Assay [1] concerns the target T1, Bcl-2-related protein A1 (Mus musculus, UniProt Q07440).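 Also: confirmatory dose–response counterscreen on Bfl-1, used to check hits from a UBC13 polyubiquitin inhibitor campaign.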
T1 sequence (Q07440 whole entry): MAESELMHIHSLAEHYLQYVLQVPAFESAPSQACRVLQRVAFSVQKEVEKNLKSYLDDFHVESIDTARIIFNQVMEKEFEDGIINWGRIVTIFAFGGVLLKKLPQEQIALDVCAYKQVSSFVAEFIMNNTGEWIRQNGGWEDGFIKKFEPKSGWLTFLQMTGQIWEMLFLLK
It counts as functional.

The target in assay [2] is T2, Ubiquitin-conjugating enzyme E2 N (Homo sapiens, UniProt P61088).
T2 sequence (P61088 whole entry): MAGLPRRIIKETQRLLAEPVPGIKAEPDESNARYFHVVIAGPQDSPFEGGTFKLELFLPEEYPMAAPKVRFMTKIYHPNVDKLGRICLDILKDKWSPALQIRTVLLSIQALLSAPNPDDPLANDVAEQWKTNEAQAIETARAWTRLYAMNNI
It counts as functional.

Assay [3] concerns the target T2, Ubiquitin-conjugating enzyme E2 N. It counts as functional. This is another data set of the same source.
For assay [4], the target named is Voltage-dependent T-type calcium channel subunit alpha-1H (Homo sapiens, UniProt O95180). In words: human CACNA1H calcium influx blockade – cell-based, synthetic library set 2, HEK293 HH8, Fluo-4, SAR follow-up (AID 493023). It counts as functional.
Sequence of Voltage-dependent T-type calcium channel subunit alpha-1H (O95180 whole entry): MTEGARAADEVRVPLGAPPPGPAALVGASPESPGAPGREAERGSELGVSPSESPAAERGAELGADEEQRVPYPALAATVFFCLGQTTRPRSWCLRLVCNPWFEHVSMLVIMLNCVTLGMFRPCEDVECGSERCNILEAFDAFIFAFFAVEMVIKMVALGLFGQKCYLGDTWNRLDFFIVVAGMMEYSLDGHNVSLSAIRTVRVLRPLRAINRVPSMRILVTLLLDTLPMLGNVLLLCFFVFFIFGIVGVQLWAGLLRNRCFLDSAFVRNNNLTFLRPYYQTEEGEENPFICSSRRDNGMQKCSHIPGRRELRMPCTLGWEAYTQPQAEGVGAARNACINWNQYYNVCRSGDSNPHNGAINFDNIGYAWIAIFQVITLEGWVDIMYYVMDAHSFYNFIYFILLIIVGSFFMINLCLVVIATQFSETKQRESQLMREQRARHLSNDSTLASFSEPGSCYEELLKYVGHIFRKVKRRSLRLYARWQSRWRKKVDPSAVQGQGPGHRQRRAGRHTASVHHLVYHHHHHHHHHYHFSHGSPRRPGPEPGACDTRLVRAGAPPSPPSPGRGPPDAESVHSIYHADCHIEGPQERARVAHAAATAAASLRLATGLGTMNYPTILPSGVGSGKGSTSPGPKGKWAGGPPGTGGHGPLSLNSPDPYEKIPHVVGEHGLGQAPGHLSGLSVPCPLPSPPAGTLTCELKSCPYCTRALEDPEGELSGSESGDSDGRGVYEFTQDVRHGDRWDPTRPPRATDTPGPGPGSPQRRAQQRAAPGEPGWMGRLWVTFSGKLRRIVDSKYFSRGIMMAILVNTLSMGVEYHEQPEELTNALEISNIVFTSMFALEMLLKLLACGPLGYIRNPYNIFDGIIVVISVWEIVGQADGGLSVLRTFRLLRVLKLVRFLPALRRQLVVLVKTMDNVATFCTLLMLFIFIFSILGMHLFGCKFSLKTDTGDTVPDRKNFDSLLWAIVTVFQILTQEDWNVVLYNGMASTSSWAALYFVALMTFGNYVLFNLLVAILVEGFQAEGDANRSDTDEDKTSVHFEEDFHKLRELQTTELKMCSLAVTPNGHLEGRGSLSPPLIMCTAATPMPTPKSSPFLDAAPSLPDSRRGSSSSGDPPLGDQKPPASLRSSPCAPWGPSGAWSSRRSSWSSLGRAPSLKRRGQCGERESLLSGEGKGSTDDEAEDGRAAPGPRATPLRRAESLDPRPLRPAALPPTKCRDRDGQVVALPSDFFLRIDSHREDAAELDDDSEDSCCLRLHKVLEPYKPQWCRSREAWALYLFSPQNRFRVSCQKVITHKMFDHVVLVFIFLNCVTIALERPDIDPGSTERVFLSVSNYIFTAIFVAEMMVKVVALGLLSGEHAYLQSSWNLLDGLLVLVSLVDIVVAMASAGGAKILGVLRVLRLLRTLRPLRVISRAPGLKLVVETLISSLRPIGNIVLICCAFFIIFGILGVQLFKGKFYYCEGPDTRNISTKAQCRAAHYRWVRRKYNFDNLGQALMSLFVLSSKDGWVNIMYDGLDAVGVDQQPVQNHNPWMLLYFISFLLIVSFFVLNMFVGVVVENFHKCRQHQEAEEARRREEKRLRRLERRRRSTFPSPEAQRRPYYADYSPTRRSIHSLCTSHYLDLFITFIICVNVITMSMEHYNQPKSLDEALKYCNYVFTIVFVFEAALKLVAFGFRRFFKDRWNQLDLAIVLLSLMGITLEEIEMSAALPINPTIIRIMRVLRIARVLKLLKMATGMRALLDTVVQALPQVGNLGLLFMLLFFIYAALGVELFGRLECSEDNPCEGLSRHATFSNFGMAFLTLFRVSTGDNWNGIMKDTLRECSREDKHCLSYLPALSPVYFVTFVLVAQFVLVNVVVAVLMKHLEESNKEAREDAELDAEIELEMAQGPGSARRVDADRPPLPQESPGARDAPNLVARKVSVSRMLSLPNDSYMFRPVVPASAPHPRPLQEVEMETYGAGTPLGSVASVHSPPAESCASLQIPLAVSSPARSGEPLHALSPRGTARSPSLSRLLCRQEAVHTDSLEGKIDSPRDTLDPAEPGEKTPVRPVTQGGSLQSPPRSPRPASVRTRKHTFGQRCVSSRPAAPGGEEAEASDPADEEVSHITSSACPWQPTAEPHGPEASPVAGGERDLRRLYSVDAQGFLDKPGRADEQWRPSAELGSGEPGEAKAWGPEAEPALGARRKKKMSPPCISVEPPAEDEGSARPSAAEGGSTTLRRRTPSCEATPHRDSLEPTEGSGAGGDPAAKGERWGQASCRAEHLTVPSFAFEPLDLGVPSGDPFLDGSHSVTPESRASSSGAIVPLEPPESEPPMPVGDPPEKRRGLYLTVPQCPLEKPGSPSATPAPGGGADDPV
Assay [5] deals with Tyrosine-protein phosphatase non-receptor type 12 (Homo sapiens, UniProt Q05209). In words: SAR Selectivity Analysis of small molecule inhibitors of PEST using pCAP in a fluorescence assay. [Related pubchem assays (depositor defined):AID1779, AID1784, AID2135]. It counts as functional.
Sequence of Tyrosine-protein phosphatase non-receptor type 12 (Q05209 whole entry): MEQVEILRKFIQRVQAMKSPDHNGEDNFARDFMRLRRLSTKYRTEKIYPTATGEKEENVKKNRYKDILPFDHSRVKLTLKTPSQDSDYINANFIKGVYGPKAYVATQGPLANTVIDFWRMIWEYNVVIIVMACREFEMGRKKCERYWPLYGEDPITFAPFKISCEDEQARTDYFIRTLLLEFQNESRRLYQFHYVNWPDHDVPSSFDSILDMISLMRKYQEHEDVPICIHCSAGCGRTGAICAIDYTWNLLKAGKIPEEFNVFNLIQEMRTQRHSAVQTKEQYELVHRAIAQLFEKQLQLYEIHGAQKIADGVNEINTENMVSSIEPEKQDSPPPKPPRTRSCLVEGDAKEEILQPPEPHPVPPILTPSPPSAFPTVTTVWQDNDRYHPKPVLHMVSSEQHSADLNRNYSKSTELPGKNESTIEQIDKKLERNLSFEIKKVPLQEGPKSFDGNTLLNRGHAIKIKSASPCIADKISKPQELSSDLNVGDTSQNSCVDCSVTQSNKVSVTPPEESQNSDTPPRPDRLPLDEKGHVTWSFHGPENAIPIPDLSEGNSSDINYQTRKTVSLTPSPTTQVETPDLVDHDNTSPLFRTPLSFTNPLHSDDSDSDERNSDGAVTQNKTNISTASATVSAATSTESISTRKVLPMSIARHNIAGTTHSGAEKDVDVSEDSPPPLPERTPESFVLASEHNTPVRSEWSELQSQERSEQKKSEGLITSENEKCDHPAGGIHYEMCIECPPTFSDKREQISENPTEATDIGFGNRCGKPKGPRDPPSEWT
In assay [6] the target is T3, Dual specificity protein phosphatase 3 (Homo sapiens, UniProt P51452). The assay can be described thus: SAR VHR1 absorbance Assay for In Vitro dose response studies. [Related pubchem assays (depositor defined):AID1654, AID1661, AID1878, AID1992, AID2004].
T3 sequence (P51452 whole entry): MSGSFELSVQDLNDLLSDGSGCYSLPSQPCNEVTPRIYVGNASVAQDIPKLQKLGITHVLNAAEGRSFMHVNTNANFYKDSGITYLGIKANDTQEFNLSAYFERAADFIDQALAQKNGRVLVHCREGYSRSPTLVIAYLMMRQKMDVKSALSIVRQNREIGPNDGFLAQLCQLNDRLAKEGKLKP
Assay [7] concerns the target T3, Dual specificity protein phosphatase 3. The assay can be described thus: SAR VHR1 Fluorescent Assay for In Vitro dose response studies. [Related pubchem assays (depositor defined):AID1654, AID1661, AID1878, AID1992, AID2004, AID2070, AID2085]. It counts as functional.
Assay [8] concerns the target T4, Tyrosine-protein phosphatase non-receptor type 22 (Homo sapiens, UniProt Q9Y2R2).
T4 sequence (Q9Y2R2 whole entry): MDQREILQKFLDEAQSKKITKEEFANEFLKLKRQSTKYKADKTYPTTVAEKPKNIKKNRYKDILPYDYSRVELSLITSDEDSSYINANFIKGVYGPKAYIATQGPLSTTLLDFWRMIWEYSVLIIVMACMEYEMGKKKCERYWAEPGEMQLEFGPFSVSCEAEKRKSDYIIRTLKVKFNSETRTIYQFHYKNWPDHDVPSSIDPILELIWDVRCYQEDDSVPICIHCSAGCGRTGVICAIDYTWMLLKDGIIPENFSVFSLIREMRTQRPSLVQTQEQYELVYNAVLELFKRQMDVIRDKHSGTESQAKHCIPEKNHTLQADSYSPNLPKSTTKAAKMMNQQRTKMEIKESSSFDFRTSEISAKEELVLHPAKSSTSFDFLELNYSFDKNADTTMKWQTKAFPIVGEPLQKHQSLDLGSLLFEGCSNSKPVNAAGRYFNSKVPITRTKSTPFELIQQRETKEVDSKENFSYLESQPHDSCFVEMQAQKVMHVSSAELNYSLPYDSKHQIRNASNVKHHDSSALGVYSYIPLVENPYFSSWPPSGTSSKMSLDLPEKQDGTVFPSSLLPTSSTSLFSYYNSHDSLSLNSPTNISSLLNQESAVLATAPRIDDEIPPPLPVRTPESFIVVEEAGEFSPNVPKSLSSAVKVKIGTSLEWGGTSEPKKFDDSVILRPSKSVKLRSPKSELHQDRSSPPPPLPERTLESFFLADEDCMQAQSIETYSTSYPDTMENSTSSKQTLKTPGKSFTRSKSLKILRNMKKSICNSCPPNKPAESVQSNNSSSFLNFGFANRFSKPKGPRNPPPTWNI
The assay can be described thus: SAR LYP1 Fluorescent Assay using OMFP substrate for In Vitro dose response studies - Set 3. [Related pubchem assays (depositor defined):AID1779, AID1784, AID2140, AID2686]. It counts as functional.

Assay [9] has as its target T5, Tyrosine-protein phosphatase non-receptor type 7 (Homo sapiens, UniProt P35236).
T5 sequence (P35236 whole entry): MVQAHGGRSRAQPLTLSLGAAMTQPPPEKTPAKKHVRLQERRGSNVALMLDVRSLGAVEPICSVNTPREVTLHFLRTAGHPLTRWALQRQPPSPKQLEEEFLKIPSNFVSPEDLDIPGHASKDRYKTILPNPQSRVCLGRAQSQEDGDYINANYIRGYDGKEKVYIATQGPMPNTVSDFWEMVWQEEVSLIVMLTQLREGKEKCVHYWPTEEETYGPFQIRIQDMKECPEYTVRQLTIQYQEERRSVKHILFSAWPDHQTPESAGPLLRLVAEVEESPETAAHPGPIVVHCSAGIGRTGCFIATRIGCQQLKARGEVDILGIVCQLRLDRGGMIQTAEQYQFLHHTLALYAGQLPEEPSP
In words: redox-active compounds inhibiting HePTP phosphatase – biochemical, fluorescence, mechanism study (AID 2068). It counts as functional.

Assay [10] concerns the target T5, Tyrosine-protein phosphatase non-receptor type 7. In words: inhibition of hematopoietic tyrosine phosphatase HePTP – biochemical, set 2, SAR follow-up (AID 449736). It counts as functional.
Assay [11] deals with T4, Tyrosine-protein phosphatase non-receptor type 22. In words: inhibition of lymphoid tyrosine phosphatase LYP – biochemical, pCAP fluorogenic substrate, fluorescence, set 3, SAR follow-up (AID 449727). It counts as functional.
For assay [12], the target named is T6, Dual specificity protein phosphatase 6 (Rattus norvegicus, UniProt Q64346).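 Also: confirmatory in vitro dose-response testing of MKP-3 inhibition; recombinant His-tagged MKP-3 made in E. coli BL21 with OMFP substrate.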
T6 sequence (Q64346 whole entry): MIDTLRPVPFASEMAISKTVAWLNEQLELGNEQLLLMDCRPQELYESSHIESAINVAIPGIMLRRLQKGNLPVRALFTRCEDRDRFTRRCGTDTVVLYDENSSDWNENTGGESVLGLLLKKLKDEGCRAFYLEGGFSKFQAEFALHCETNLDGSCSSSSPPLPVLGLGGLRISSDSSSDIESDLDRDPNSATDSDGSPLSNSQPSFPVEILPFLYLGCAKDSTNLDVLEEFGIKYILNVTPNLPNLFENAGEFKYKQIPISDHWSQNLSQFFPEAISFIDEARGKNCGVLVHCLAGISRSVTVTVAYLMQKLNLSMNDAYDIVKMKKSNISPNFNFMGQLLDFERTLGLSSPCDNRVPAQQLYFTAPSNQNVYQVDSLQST
It counts as functional.

Assay [13] concerns the target T7, Kappa-type opioid receptor (Homo sapiens, UniProt P41145). The assay can be described thus: kappa opioid receptor activation by imaging – image-based, set 3, SAR follow-up (AID 488833). It counts as functional.
Assay [14] deals with Mu-type opioid receptor (Homo sapiens, UniProt P35372). The assay can be described thus: SAR Analysis of Agonists of the MOR Receptor using an Image-Based Assay - Set 3. [Related pubchem assays (depositor defined):AID1777, AID1785, AID1786, AID1966, AID2133, AID2136, AID2284, AID2285, AID2352]. It counts as functional.
Sequence of Mu-type opioid receptor (P35372 whole entry): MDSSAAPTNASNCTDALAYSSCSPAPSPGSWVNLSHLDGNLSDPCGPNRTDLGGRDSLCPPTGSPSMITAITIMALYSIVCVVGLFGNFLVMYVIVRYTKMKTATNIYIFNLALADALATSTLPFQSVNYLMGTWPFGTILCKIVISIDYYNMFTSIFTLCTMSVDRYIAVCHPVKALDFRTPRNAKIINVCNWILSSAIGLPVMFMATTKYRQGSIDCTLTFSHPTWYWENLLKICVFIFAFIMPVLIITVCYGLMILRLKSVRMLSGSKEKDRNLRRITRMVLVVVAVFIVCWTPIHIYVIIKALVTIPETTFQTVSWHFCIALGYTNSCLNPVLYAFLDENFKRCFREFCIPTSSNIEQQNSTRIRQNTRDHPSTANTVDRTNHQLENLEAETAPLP
For assay [15], the target named is Delta-type opioid receptor (Homo sapiens, UniProt P41143). The assay can be described thus: SAR Analysis of Agonists of the DOR Receptor using an Image-Based Assay - Set 3. [Related pubchem assays (depositor defined):AID1777, AID1786]. It counts as functional.
Sequence of Delta-type opioid receptor (P41143 whole entry): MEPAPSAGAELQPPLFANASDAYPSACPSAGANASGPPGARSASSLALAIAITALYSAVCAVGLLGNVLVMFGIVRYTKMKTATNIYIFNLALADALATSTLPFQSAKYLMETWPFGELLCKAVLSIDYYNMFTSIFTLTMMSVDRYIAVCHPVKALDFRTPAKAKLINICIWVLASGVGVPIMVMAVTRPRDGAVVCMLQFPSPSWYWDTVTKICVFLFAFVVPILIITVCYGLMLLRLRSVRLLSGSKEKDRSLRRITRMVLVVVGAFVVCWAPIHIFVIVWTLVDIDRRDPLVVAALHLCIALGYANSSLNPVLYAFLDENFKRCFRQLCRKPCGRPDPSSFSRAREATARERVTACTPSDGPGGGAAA
The target in assay [16] is T7, Kappa-type opioid receptor. The assay can be described thus: SAR analysis of small molecule agonists of the kappa opioid receptor via a luminescent beta-arrestin assay - Set 3. [Related pubchem assays (depositor defined):AID1777, AID1785, AID1786, AID1966, AID2133, AID2136, AID2284, AID2500]. It counts as functional.
The nature of assay [17]: compounds quenching green fluorescent protein signal – biochemical, plate reader, dry powder, artefact control, dose response (AID 493243).
Assay [18] deals with T8, Replicative DNA helicase DnaB (Mycobacterium tuberculosis, UniProt P9WMR3).
T8 sequence (P9WMR3 whole entry): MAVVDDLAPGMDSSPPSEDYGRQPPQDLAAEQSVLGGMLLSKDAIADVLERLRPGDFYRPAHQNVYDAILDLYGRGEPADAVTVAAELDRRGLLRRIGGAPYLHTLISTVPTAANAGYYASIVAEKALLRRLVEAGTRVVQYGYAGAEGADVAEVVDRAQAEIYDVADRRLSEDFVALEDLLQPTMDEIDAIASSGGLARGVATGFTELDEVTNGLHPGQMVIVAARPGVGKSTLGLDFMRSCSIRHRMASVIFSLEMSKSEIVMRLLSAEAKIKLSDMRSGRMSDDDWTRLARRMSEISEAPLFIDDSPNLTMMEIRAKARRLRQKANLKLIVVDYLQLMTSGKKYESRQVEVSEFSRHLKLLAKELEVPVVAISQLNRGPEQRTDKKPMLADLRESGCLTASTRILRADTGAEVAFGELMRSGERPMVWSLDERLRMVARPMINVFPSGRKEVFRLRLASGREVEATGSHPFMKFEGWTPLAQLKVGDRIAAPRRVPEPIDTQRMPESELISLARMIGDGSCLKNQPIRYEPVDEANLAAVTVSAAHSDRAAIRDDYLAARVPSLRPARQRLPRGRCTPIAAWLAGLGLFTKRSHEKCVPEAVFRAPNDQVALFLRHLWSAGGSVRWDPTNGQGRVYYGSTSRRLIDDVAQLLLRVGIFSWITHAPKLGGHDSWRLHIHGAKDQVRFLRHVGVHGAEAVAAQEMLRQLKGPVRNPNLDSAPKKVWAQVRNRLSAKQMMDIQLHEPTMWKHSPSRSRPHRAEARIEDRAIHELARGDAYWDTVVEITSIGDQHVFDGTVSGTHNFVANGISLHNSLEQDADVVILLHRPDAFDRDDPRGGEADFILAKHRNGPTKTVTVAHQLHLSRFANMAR
In words: DnaB Intein secondary assay Measured in Biochemical System Using Plate Reader - 2047-04_Inhibitor_Dose_DryPowder_Activity. [Related pubchem assays (depositor defined):AID2223].

Assay [19] has as its target T9, Protein RecA (Mycobacterium tuberculosis, UniProt P9WHJ3).
T9 sequence (P9WHJ3 whole entry): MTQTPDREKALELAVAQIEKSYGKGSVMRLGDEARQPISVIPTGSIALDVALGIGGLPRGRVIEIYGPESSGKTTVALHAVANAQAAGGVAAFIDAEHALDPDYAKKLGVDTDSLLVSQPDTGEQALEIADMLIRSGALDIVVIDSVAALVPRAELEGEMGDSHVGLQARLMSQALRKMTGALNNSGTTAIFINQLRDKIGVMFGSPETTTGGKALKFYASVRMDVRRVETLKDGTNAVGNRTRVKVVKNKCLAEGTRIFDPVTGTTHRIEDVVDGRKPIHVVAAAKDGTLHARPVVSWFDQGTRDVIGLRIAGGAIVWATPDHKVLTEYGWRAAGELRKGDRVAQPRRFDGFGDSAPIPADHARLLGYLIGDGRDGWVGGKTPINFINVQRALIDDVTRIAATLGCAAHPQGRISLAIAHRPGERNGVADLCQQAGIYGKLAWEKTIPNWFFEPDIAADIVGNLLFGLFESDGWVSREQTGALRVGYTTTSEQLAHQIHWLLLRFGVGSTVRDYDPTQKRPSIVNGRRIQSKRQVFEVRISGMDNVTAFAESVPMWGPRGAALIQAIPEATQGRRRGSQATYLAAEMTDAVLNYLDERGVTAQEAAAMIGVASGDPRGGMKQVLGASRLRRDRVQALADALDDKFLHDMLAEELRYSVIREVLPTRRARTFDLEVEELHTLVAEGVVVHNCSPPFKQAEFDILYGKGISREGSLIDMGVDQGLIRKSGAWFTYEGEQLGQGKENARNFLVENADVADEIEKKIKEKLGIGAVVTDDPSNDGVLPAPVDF
In words: RecA Intein Measured in Biochemical System Using Plate Reader - 2047-02_Inhibitor_Dose_DryPowder_Activity. [Related pubchem assays (depositor defined):AID2223]. Also noted: species or system Mycobacterium tuberculosis H37Rv.

Assay [20] is described as follows: cells. It counts as functional.
Assay [21] addresses T8, Replicative DNA helicase DnaB. In words: DnaB intein splicing inhibitors, dose response, biochemical, cell-free fluorescence (AID 449749). It counts as functional.
Assay [22] concerns the target T9, Protein RecA. The assay can be described thus: Fluorescence Cell-Free Homogeneous Dose Retest to Identify Inhibitors of RecA-Intein Splicing Activity. [Related pubchem assays (depositor defined):AID2097, AID2223, AID489010, AID492950]. It counts as functional.

Consider five compounds from ChEMBL document CHEMBL1201862, “PubChem BioAssay data set” (2004).

Active and inactive are the calls of the source.

T7 sequence (P41145 whole entry): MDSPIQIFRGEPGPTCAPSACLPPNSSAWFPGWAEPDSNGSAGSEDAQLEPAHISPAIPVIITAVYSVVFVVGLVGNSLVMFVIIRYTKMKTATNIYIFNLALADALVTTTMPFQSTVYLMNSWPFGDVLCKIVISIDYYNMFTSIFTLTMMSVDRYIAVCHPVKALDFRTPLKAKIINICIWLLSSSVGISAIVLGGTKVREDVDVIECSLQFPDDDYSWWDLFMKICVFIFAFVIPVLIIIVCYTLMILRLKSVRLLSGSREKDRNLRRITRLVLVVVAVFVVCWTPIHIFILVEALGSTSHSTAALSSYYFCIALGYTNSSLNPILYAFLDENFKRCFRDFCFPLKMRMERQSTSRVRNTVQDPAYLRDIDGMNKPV

In general, IC50 refers to the concentration at which inhibition is half-maximal. On to `NC(=O)c1ccc(Cn2c(C(=O)c3cc(Cl)c(N)c(Cl)c3)c3ccccc3[n+]2[O-])cc1`, for which the IC50 in [1] is > 20 µM (inactive); in [2] it was 10.8 µM (active); in [3], > 20 µM (inactive).

For orientation: EC50 means the concentration at which the effect is half-maximal. In the case of `O=C(COc1ccccc1Cl)N[C@@H]1CCCN(Cc2ccccc2)C1`, the EC50 in [4] is 10 µM (active).

With `Cc1cc(OCC(=O)O)ccc1[S+](C)[O-]` (configuration not stated), the IC50 in assay [5] was > 100 µM (inactive); in assay [6], > 100 µM (inactive); in assay [7] it was > 99 µM (inactive); in assay [8], > 100 µM (inactive); in assay [9], > 100 µM (inactive); in [10], > 100 µM (inactive). In addition, the results for the IC50 in [11] and in assay [12] were > 100 µM (inactive) and > 99 µM (inactive), respectively.

As to `CC(=O)Oc1ccc(CSc2nnc(-c3ccccn3)n2Cc2cccs2)cc1`, the EC50 in assay [13] is > 32 µM (inactive); in assay [14] it was > 32 µM (inactive); in [15], > 32 µM (inactive); in assay [16], > 20 µM (inactive).

As a reminder, the AC50 is the concentration giving half of the maximal activity seen. For `C/C(=N\NC(=O)c1ccncc1)c1cc2ccccc2oc1=O`, the AC50 in assay [17] was 218 µM (active); in assay [18] it was 36.9 µM (active); in assay [19], 3.08 µM (active); in assay [21], 2.77 µM (active). Besides, the half-inhibitory concentration (IC50) in [20] was 0.55 µM (active). The EC50 in assay [22] was 2.86 µM (active).
